≈ marks a conversion by molar mass, not a printed value.
Tests used:
[1] = system: H2O2-stimulated PC 12 cell lines; assay: Protection against H2O2-induced oxidative damage (CCK-8); type: cell-based, rat; settings: for Cell viability: in % (unit assumed)
Method in brief: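 Rat PC 12 cells were plated in 96-well plates at 8000 cells/well and left to grow overnight. After a further 24 h incubation under the same conditions, each well received 10 μL CCK-8 solution. Following 2 h of incubation, absorbance at 450 nm was read on a microplate reader to measure cell viability.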

[2] = system: LPS-stimulated RAW264.7 cell lines; assay: LPS-induced NO production (Griess) in RAW264.7; type: cell-based, murine; settings: for The production of NO: LPS-stimulated RAW264.7, LPS group 49.86 ± 0.62, control 1.20 ± 0.38
Method in brief: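 RAW 264.7 murine macrophages were seeded at 1 × 10^4 cells/well in 96-well plates and cultured overnight at 37 °C with 5% CO2, with dexamethasone as positive control. After 24 h, nitrite in 50 μL of supernatant was quantified by sequential 5-min room-temperature incubations with 50 μL Griess reagent A and then reagent B, reading absorbance at 540 nm.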

PC 12 cell lines = assay: Radiation protection in vitro (CCK-8); type: cell-based, rat; settings: for viability at 5 µM / viability at 10 µM / viability at 20 µM: Rattus norvegicus, radiation 8.0 Gy, PC 12, radiation group 50.22 ± 1.08; for viability at 5 µM: PC-12, Dose 5 μM; for viability at 10 µM: PC-12, Dose 10 μM; for viability at 20 µM: PC-12, Dose 20 μM
Protocol: The rat adrenal pheochromocytoma cells (PC 12) were used for in vitro studies. A Cell Counting Kit-8 (CCK-8, Applygen Technologies Co., Ltd., Beijing, China) assay was used to determine cell viability. […] Cells were irradiated with dose of 8.0 Gy at a dose rate of 0.8 Gy/min. Then, 10 μL CCK-8 solution was added to all the wells. After 4 h incubation, the absorbance at 450 nm of each well was measured in a multiscan photometer.

[3] = cited from earlier work
[4] = Aqueous solubility determination by UV spectrophotometer; type: physicochemical; settings: water, thermodynamic from solid, saturated solution concentration
Method in brief: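 Solubility was determined by UV spectrophotometry. Saturated solutions were diluted 5000-fold and their OD read against each compound's concentration–OD standard curve (0.003125–0.2 M). The result was multiplied back by 5000 to give saturated concentration.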

PC 12 cell line = assay: Cytotoxicity assay (CCK-8) on PC 12; type: cell-based, rat; settings: 20 μM
Protocol: RAW264.7 cells were cultured in 96-well plates at a density of 3 × 10^4 cells/mL in Dulbecco’s modified Eagle’s medium (DMEM, Gibco, Baltimore, MD, USA) with 10% fetal calf serum (Gibco, Baltimore, MD, USA), 100 U/mL penicillin, and 100 μg/mL streptomycin. Plates were incubated in an atmosphere containing 5% CO2 at […]. PC 12 cells were cultured in 96-well plates at a density of 8000 cells/mL in Dulbecco’s modified Eagle’s medium (DMEM, Gibco, Baltimore, MD, USA) with 10% fetal calf serum (Gibco, Baltimore, MD, USA), 100 U/mL penicillin, and 100 μg/mL streptomycin. Plates were incubated in an atmosphere containing 5% CO2 at 37 °C. Cells were treated with different concentrations of test compounds for 48 h. Then, 10 μL CCK-8 solution were added to all the wells. After 4 h incubation, the absorbance at 450 nm of each well was measured in a multiscan photometer.

Compound	viability at 5 µM ([1]; Rattus norvegicus, PC-12, Dose 5 μM, H2O2-induced oxidative damage, PC 12, H2O2 group 49.69 ± 1.37, control 100) [%]	viability at 10 µM ([1]; Rattus norvegicus, PC-12, Dose 10 μM, H2O2-induced oxidative damage, PC 12, H2O2 group 49.69 ± 1.37, control 100) [%]	viability at 20 µM ([1]; Rattus norvegicus, PC-12, Dose 20 μM, H2O2-induced oxidative damage, PC 12, H2O2 group 49.69 ± 1.37, control 100) [%]	The production of NO ([2]; Dose 5 μM)	The production of NO ([2]; Dose 10 μM)	The production of NO ([2]; Dose 15 μM)	viability at 5 µM (PC 12 cell lines) [%]	viability at 10 µM (PC 12 cell lines) [%]	viability at 20 µM (PC 12 cell lines) [%]	aqueous solubility [3] [mg/mL]	anti-oxidant capacity compared with curcumin ([1]; 10 μM, H2O2-stimulated PC 12)	Cell viability ([1]; Dose 5 μM, H2O2-induced oxidative damage, PC 12, H2O2 group 49.69 ± 1.37, control 100)	Cell viability ([1]; Dose 10 μM, H2O2-induced oxidative damage, PC 12, H2O2 group 49.69 ± 1.37, control 100)	Cell viability ([1]; Dose 20 μM, H2O2-induced oxidative damage, PC 12, H2O2 group 49.69 ± 1.37, control 100)	cell survival rate (anti-oxidant) ([1]; at 20 μM, H2O2-stimulated PC 12) [%]	inhibitory activity against NO production compared with curcumin ([2]; 10 μM)	radiation protection capability compared with curcumin (PC 12 cell lines; 10 μM, irradiated PC 12)	radiation protection capacity (PC 12 cell lines; 10 μM, versus radiation group)	solubility [4] [mg/mL]	effect on PC 12 cell proliferation (PC 12 cell line)
COc1cc(/C=C/C(=O)CC(=O)/C=C/c2ccc(O)c(OC)c2)ccc1O [Curcumin, curcumin, reference compound]	59.6 ± 2.21	71.8 ± 1.52	86.4 ± 1.28	37.00 ± 1.12	21.55 ± 1.29	5.96 ± 0.03	55.1 ± 1.37	59.39 ± 0.57	75.47 ± 0.68	< 0.1										
COc1ccc(/C=C/C(=O)CC(=O)/C=C/c2cc(CN(C)C)c(O)c(OC)c2)cc1OC [Compound 5a]				33.90 ± 1.94	15.60 ± 2.78	9.88 ± 0.53	58.2 ± 1.86	68.7 ± 5.9	105 ± 5.01		better anti-oxidant capacity	75.15 ± 5.90	84.53 ± 2.36	106.17 ± 3.34	106	better inhibitory activity	better radiation protection capability	a certain degree of radiation protection capacity	118 (≈ 268 mM)	significant promoting effect
